{"source": "patent US10435376B2", "about": "“Derivatives of 1H-imidazole-4,5-dicarboxamide and use thereof in preparation of anticoccidial drugs” (GUANGZHOU INSIGHTER BIOTECHNOLOGY CO., LTD., priority 2015, dated 2019)", "system": "Eimeria tenella", "test": "Inhibitory effects of the derivatives on Eimeria tenella of chicken (60 ppm in feed)", "format": "in vivo", "details": "for responders at 60 ppm, 60 µg/mL / response vs control in vivo at 60 ppm, 60 µg/mL: Eimeria tenella, 168 h; for responders at 60 ppm, 60 µg/mL: read-out: Survival rate (%); for response vs control in vivo at 60 ppm, 60 µg/mL: relative to group 1 (not infected, not treated), read-out: Relative weight gain (%); for Score (bloody stool score): 5 days after inoculation", "from_the_text": "One-day-old yellow-feather fast-growing broilers were raised in a coccidia-free environment, and divided into groups for trial at the age of 18 days when no coccidian oocysts were detected by microscopy in their faeceas. Weak or overweight broilers were removed, and healthy broilers were divided into 30 groups with 50 broilers in each group and weight difference between each two broilers was below 20 g. Groups 1 and 2 were respectively a control group that the broilers were neither infected nor treated, and a control group that the broilers were infected but not treated. Groups 3 to 30 were respectively administrated with different derivatives. The broilers were given ad libitum access to feed and water when the feed was added with different medicines according to Table 1 at the day the broilers were divided. 24 Hours after the trial began, 250,000 sporulated Eimeria tenella oocysts were inoculated via an oral gavage into the crop of every broiler in each group except group 1. Bloody stool score was measured 5 days after the inoculation and the trial was ended 7 days after the inoculation. Relative weight gain (%), survival rate (%) and the bloody stool score were evaluated.\nBloody stool score: 0, no bloody stool was observed; 1, bloody stool below 25%; 2, 25 to 50% of bloody stool; 3, 50 to 75% of bloody stool; and 4, bloody stool over 75%.\nRelative weight gain (%): The broilers were weighed at the beginning and the end of the trial to calculate the average weight gain and relative weigh gain. Relative weight gain=(average weight gain of each group/average weight gain of group 1)×100%.\nDeaths of the broilers: Necropsy was performed and the amount of dead broilers in each group was recorded to calculate the survival rate. Survival rate=(total amount of the broilers in each group−amount of deaths caused by coccidial infection)/total amount of the broilers in each group×100%.", "key": {"[1]": {"details": "broilers, 60 ppm in feed, 250,000 E. tenella oocysts, 7 days after inoculation"}, "[2]": {"details": "broilers, 60 ppm in feed, 250,000 E. tenella oocysts"}}, "note": "Like-named read-outs stand apart in the source and are kept apart here.", "data": [{"smiles": "CC(=O)NC(=O)c1ncn(Cc2ccc(Cl)cc2)c1C(=O)NC(C)=O", "note": "[IST15151, N^4,N^5-diacetyl-1-(4-chlorobenzyl)-1H-imidazole-4,5-dicarboxamide]", "values": [{"measurement": "responders at 60 ppm, 60 µg/mL", "setting": "[1]", "result": 100, "unit": "%"}, {"measurement": "response vs control in vivo at 60 ppm, 60 µg/mL", "setting": "[2]", "result": 83.6, "unit": "%"}, {"measurement": "Score (bloody stool score)", "setting": "[2]", "result": "3 (50 to 75% of bloody stool)"}]}, {"smiles": "CCCCCCn1cnc(C(N)=O)c1C(N)=O", "note": "[IST15162, 1-hexyl-1H-imidazole-4,5-dicarboxamide]", "values": [{"measurement": "responders at 60 ppm, 60 µg/mL", "setting": "[1]", "result": 100, "unit": "%"}, {"measurement": "response vs control in vivo at 60 ppm, 60 µg/mL", "setting": "[2]", "result": 81.6, "unit": "%"}, {"measurement": "Score (bloody stool score)", "setting": "[2]", "result": "3 (50 to 75% of bloody stool)"}]}, {"smiles": "NC(=O)c1ncn(Cc2ccc(F)cc2)c1C(N)=O", "note": "[IST15042, 1-(4-fluorobenzyl)-1H-imidazole-4,5-dicarboxamide]", "values": [{"measurement": "responders at 60 ppm, 60 µg/mL", "setting": "[1]", "result": 100, "unit": "%"}, {"measurement": "response vs control in vivo at 60 ppm, 60 µg/mL", "setting": "[2]", "result": 81.2, "unit": "%"}, {"measurement": "Score (bloody stool score)", "setting": "[2]", "result": "3 (50 to 75% of bloody stool)"}]}, {"smiles": "COc1ccc(Cn2cnc(C(N)=O)c2C(N)=O)cc1", "note": "[IST15053, 1-(4-methoxybenzyl)-1H-imidazole-4,5-dicarboxamide]", "values": [{"measurement": "responders at 60 ppm, 60 µg/mL", "setting": "[1]", "result": 100, "unit": "%"}, {"measurement": "response vs control in vivo at 60 ppm, 60 µg/mL", "setting": "[2]", "result": 82.5, "unit": "%"}, {"measurement": "Score (bloody stool score)", "setting": "[2]", "result": "3 (50 to 75% of bloody stool)"}]}, {"smiles": "NC(=O)c1ncn(Cc2c(Cl)cccc2Cl)c1C(N)=O", "note": "[IST15044, 1-(2,6-dichlorobenzyl)-1H-imidazole-4,5-dicarboxamide]", "values": [{"measurement": "responders at 60 ppm, 60 µg/mL", "setting": "[1]", "result": 100, "unit": "%"}, {"measurement": "response vs control in vivo at 60 ppm, 60 µg/mL", "setting": "[2]", "result": 79.8, "unit": "%"}, {"measurement": "Score (bloody stool score)", "setting": "[2]", "result": "3 (50 to 75% of bloody stool)"}]}, {"smiles": "CS(=O)(=O)c1ccc(Cn2cnc(C(N)=O)c2C(N)=O)cc1", "note": "[IST15150, 1-(4-(methylsulfonyl)benzyl)-1H-imidazole-4,5-dicarboxamide]", "values": [{"measurement": "responders at 60 ppm, 60 µg/mL", "setting": "[1]", "result": 100, "unit": "%"}, {"measurement": "response vs control in vivo at 60 ppm, 60 µg/mL", "setting": "[2]", "result": 86.3, "unit": "%"}, {"measurement": "Score (bloody stool score)", "setting": "[2]", "result": "2 (25 to 50% of bloody stool)"}]}, {"smiles": "NC(=O)c1ncn(Cc2ccc(Cl)c(Cl)c2)c1C(N)=O", "note": "[IST15054, 1-(3,4-dichlorobenzyl)-1H-imidazole-4,5-dicarboxamide]", "values": [{"measurement": "responders at 60 ppm, 60 µg/mL", "setting": "[1]", "result": 100, "unit": "%"}, {"measurement": "response vs control in vivo at 60 ppm, 60 µg/mL", "setting": "[2]", "result": 71.4, "unit": "%"}, {"measurement": "Score (bloody stool score)", "setting": "[2]", "result": "4 (bloody stool over 75%)"}]}, {"smiles": "O=C1NC(=O)c2[nH]cnc21", "note": "[IST15015, pyrrolo[3,4-d]imidazole-4,6(1H,5H)-dione]", "values": [{"measurement": "responders at 60 ppm, 60 µg/mL", "setting": "[1]", "result": 100, "unit": "%"}, {"measurement": "response vs control in vivo at 60 ppm, 60 µg/mL", "setting": "[2]", "result": 72.5, "unit": "%"}, {"measurement": "Score (bloody stool score)", "setting": "[2]", "result": "4 (bloody stool over 75%)"}]}, {"smiles": "CC(C)n1cnc(C(N)=O)c1C(N)=O", "note": "[IST15115, 1-isopropyl-1H-imidazole-4,5-dicarboxamide]", "values": [{"measurement": "responders at 60 ppm, 60 µg/mL", "setting": "[1]", "result": 100, "unit": "%"}, {"measurement": "response vs control in vivo at 60 ppm, 60 µg/mL", "setting": "[2]", "result": 85.9, "unit": "%"}, {"measurement": "Score (bloody stool score)", "setting": "[2]", "result": "3 (50 to 75% of bloody stool)"}]}, {"smiles": "NC(=O)c1ncn(Cc2cccc(Cl)c2)c1C(N)=O", "note": "[IST15041, 1-(3-chlorobenzyl)-1H-imidazole-4,5-dicarboxamide]", "values": [{"measurement": "responders at 60 ppm, 60 µg/mL", "setting": "[1]", "result": 100, "unit": "%"}, {"measurement": "response vs control in vivo at 60 ppm, 60 µg/mL", "setting": "[2]", "result": 85.4, "unit": "%"}, {"measurement": "Score (bloody stool score)", "setting": "[2]", "result": "3 (50 to 75% of bloody stool)"}]}, {"smiles": "O=C(Nc1ccc([N+](=O)[O-])cc1)c1nc[nH]c1C(=O)Nc1ccc([N+](=O)[O-])cc1", "note": "[IST15009, N^4,N^5-bis(4-nitrophenyl)-1H-imidazole-4,5-dicarboxamide]", "values": [{"measurement": "responders at 60 ppm, 60 µg/mL", "result": 100, "unit": "%"}, {"measurement": "response vs control in vivo at 60 ppm, 60 µg/mL", "setting": "[2]", "result": 82.6, "unit": "%"}, {"measurement": "Score (bloody stool score)", "setting": "[2]", "result": "3 (50 to 75% of bloody stool)"}]}, {"smiles": "CCn1cnc(C(=O)NC(C)=O)c1C(=O)NC(C)=O", "note": "[IST15165, N^4,N^5-diacetyl-1-ethyl-1H-imidazole-4,5-dicarboxamide]", "values": [{"measurement": "responders at 60 ppm, 60 µg/mL", "setting": "[1]", "result": 100, "unit": "%"}, {"measurement": "response vs control in vivo at 60 ppm, 60 µg/mL", "setting": "[2]", "result": 89.7, "unit": "%"}, {"measurement": "Score (bloody stool score)", "setting": "[2]", "result": "2 (25 to 50% of bloody stool)"}]}, {"smiles": "CCCCN1C(=O)c2nc[nH]c2C1=O", "note": "[IST15013, 5-butylpyrrolo[3,4-d]imidazole-4,6(1H,5H)-dione]", "values": [{"measurement": "responders at 60 ppm, 60 µg/mL", "setting": "[1]", "result": 100, "unit": "%"}, {"measurement": "response vs control in vivo at 60 ppm, 60 µg/mL", "setting": "[2]", "result": 88.8, "unit": "%"}, {"measurement": "Score (bloody stool score)", "setting": "[2]", "result": "3 (50 to 75% of bloody stool)"}]}, {"smiles": "CCCCCn1cnc(C(N)=O)c1C(N)=O", "note": "[IST15116, 1-pentyl-1H-imidazole-4,5-dicarboxamide]", "values": [{"measurement": "responders at 60 ppm, 60 µg/mL", "setting": "[1]", "result": 100, "unit": "%"}, {"measurement": "response vs control in vivo at 60 ppm, 60 µg/mL", "setting": "[2]", "result": 78.6, "unit": "%"}, {"measurement": "Score (bloody stool score)", "setting": "[2]", "result": "3 (50 to 75% of bloody stool)"}]}]}
